Consider five compounds from PubChem BioAssay AID1745844 (Carcinogenic Potency Database (CPDB), 2022).

Active and inactive are the calls of the source. The rule behind the calls is not given here.

The subject of the series is rodent lifetime carcinogenesis bioassay, tumor incidence TD50. In words: carcinogenic potency in animals, long-term in vivo studies, CPDB compilation (AID 1745844).

For the compound `c1ccc2sc(SN3CCOCC3)nc2c1`, the TD50 (usually the 50% point of the dose-response relation for the toxic effect studied) runs as follows: (mouse, strain B6AKF1, females, oral dosing, site: any site (literature study), lesion: several types, types named in the paper, dosed 76 weeks, study length 76 weeks) 1310 mg/kg/day (inactive); (mouse, strain B6AKF1, males, oral dosing, site: liver, lesion: hepatoma, dosed 76 weeks, study length 76 weeks) 20100 mg/kg/day (inactive); (mouse, strain B6C3F1, females, oral dosing, site: any site (literature study), lesion: several types, types named in the paper, dosed 76 weeks, study length 76 weeks) 386 mg/kg/day (inactive); (mouse, strain B6C3F1, females, oral dosing, site: liver, lesion: hepatoma, dosed 76 weeks, study length 76 weeks) 1230 mg/kg/day (inactive); (mouse, strain B6C3F1, females, oral dosing, site: lung, lesion: adenoma, dosed 76 weeks, study length 76 weeks) 598 mg/kg/day (inactive); (mouse, strain B6C3F1, males, oral dosing, site: any site (literature study), lesion: several types, types named in the paper, dosed 76 weeks, study length 76 weeks) 200 mg/kg/day (inactive). For the same compound, the TD50 by setting is: (mouse, strain B6C3F1, males, oral dosing, site: liver, lesion: hepatoma, dosed 76 weeks, study length 76 weeks) 359 mg/kg/day (inactive); (mouse, strain B6C3F1, males, oral dosing, site: lung, lesion: adenoma, dosed 76 weeks, study length 76 weeks) 556 mg/kg/day (inactive). For the same compound, the carcinogen call runs as follows: (mouse, strain B6AKF1, females, oral dosing, site: liver, lesion: hepatoma, dosed 76 weeks, study length 76 weeks) “negative (inactive)”; (mouse, strain B6AKF1, females, oral dosing, site: lung, lesion: adenoma, dosed 76 weeks, study length 76 weeks) “negative (inactive)”; (mouse, strain B6AKF1, males, oral dosing, site: any site (literature study), lesion: several types, types named in the paper, dosed 76 weeks, study length 76 weeks) “negative (inactive)”; (mouse, strain B6AKF1, males, oral dosing, site: lung, lesion: adenoma, dosed 76 weeks, study length 76 weeks) “negative (inactive)”.
Turning to `CC(=O)Nc1ccc(C(=O)CCl)cc1`, the TD50 by setting is: (mouse, strain B6C3F1, females, in feed, site: any site (literature study), lesion: several types, types named in the paper, dosed 90 weeks, study length 105 weeks) 3500 mg/kg/day; (mouse, strain B6C3F1, females, in feed, site: liver, lesion: hepatocellular adenoma + hepatocellular carcinoma + neoplastic nodule, dosed 90 weeks, study length 105 weeks) 4700 mg/kg/day; (mouse, strain B6C3F1, females, in feed, site: liver, lesion: hepatocellular adenoma, dosed 90 weeks, study length 105 weeks) 4700 mg/kg/day; (mouse, strain B6C3F1, females, in feed, site: lung, lesion: alveolar/bronchiolar adenoma + alveolar/bronchiolar carcinoma, dosed 90 weeks, study length 105 weeks) 3020 mg/kg/day; (rat, strain Fischer 344, males, in feed, site: any site (literature study), lesion: several types, types named in the paper, dosed 87 weeks, study length 103 weeks) 325 mg/kg/day (inactive); (rat, strain Fischer 344, males, in feed, site: liver, lesion: hepatocellular adenoma + hepatocellular carcinoma + neoplastic nodule, dosed 87 weeks, study length 103 weeks) 2470 mg/kg/day. For the same compound, the carcinogen call (mouse, strain B6C3F1, males, in feed, site: any site (literature study), lesion: several types, types named in the paper, dosed 90 weeks, study length 105 weeks) is “negative (inactive)” and the carcinogen call (rat, strain Fischer 344, females, in feed, site: any site (literature study), lesion: several types, types named in the paper, dosed 87 weeks, study length 103 weeks) was “negative (inactive)”.
As for `NNCc1ccccc1`, the TD50 is, setting by setting: (mouse, strain Swiss albino, females, in drinking water, site: liver, lesion: angiosarcoma, dosed 121 weeks, study length 121 weeks) 252 mg/kg/day (inactive); (mouse, strain Swiss albino, females, in drinking water, site: liver, lesion: several types, types named in the paper, dosed 121 weeks, study length 121 weeks) 304 mg/kg/day; (mouse, strain Swiss albino, females, in drinking water, site: lung, lesion: several types, types named in the paper, dosed 121 weeks, study length 121 weeks) 85.3 mg/kg/day; (mouse, strain Swiss albino, males, in drinking water, site: liver, lesion: several types, types named in the paper, dosed 100 weeks, study length 100 weeks) 86.2 mg/kg/day; (mouse, strain Swiss albino, males, in drinking water, site: lung, lesion: adenoma, dosed 100 weeks, study length 100 weeks) 711 mg/kg/day (inactive).
As for `c1ccc2n[nH]nc2c1`, the TD50 runs as follows: (mouse, strain B6C3F1, females, in feed, site: any site (literature study), lesion: several types, types named in the paper, dosed 104 weeks, study length 106 weeks) 18900 mg/kg/day; (mouse, strain B6C3F1, females, in feed, site: lung, lesion: alveolar/bronchiolar adenoma + alveolar/bronchiolar carcinoma, dosed 104 weeks, study length 106 weeks) 3890 mg/kg/day; (mouse, strain B6C3F1, females, in feed, site: lung, lesion: alveolar/bronchiolar carcinoma, dosed 104 weeks, study length 106 weeks) 4390 mg/kg/day; (rat, strain Fischer 344, females, in feed, site: brain, lesion: glioma, NOS, dosed 78 weeks, study length 105 weeks) 20300 mg/kg/day; (rat, strain Fischer 344, females, in feed, site: liver, lesion: hepatocellular adenoma + hepatocellular carcinoma + neoplastic nodule, dosed 78 weeks, study length 105 weeks) 10100 mg/kg/day; (rat, strain Fischer 344, males, in feed, site: liver, lesion: hepatocellular adenoma + hepatocellular carcinoma + neoplastic nodule, dosed 78 weeks, study length 104 weeks) 2720 mg/kg/day. In addition, the TD50 (rat, strain Fischer 344, males, in feed, site: liver, lesion: neoplastic nodule, dosed 78 weeks, study length 104 weeks) was 2720 mg/kg/day. The carcinogen call was “negative (inactive)” (mouse, strain B6C3F1, males, in feed, site: any site (literature study), lesion: several types, types named in the paper, dosed 104 weeks, study length 106 weeks) and “a” (rat, strain Fischer 344, males, in feed, site: brain, lesion: glioma, NOS + oligodendroglioma, dosed 78 weeks, study length 104 weeks).
With `Cc1ccc(/C(=C\CN2CCCC2)c2ccccn2)cc1`, the carcinogen call runs as follows: (mouse, strain B6C3F1, females, in feed, site: any site (literature study), lesion: benign tumor, dosed 104 weeks, study length 105 weeks) “negative (inactive)”; (mouse, strain B6C3F1, females, in feed, site: any site (literature study), lesion: malignant tumor, dosed 104 weeks, study length 105 weeks) “negative (inactive)”; (mouse, strain B6C3F1, females, in feed, site: any site (literature study), lesion: several types, types named in the paper, dosed 104 weeks, study length 105 weeks) “negative (inactive)”; (mouse, strain B6C3F1, females, in feed, site: liver, lesion: hepatocellular adenoma, dosed 104 weeks, study length 105 weeks) “negative (inactive)”; (mouse, strain B6C3F1, females, in feed, site: liver, lesion: hepatocellular carcinoma, dosed 104 weeks, study length 105 weeks) “negative (inactive)”; (mouse, strain B6C3F1, females, in feed, site: liver, lesion: several types, types named in the paper, dosed 104 weeks, study length 105 weeks) “negative (inactive)”. In addition, the carcinogen call is “negative (inactive)” (mouse, strain B6C3F1, females, in feed, site: lung, lesion: several types, types named in the paper, dosed 104 weeks, study length 105 weeks); “negative (inactive)” (mouse, strain B6C3F1, males, in feed, site: any site (literature study), lesion: benign tumor, dosed 104 weeks, study length 105 weeks); “negative (inactive)” (mouse, strain B6C3F1, males, in feed, site: any site (literature study), lesion: malignant tumor, dosed 104 weeks, study length 105 weeks); “negative (inactive)” (mouse, strain B6C3F1, males, in feed, site: any site (literature study), lesion: several types, types named in the paper, dosed 104 weeks, study length 105 weeks); “negative (inactive)” (mouse, strain B6C3F1, males, in feed, site: liver, lesion: hepatocellular carcinoma, dosed 104 weeks, study length 105 weeks); “negative (inactive)” (mouse, strain B6C3F1, males, in feed, site: lung, lesion: several types, types named in the paper, dosed 104 weeks, study length 105 weeks). Also, the carcinogen call is, setting by setting: (rat, strain Fischer 344, females, in feed, site: any site (literature study), lesion: benign tumor, dosed 103 weeks, study length 104 weeks) “negative (inactive)”; (rat, strain Fischer 344, females, in feed, site: any site (literature study), lesion: malignant tumor, dosed 103 weeks, study length 104 weeks) “negative (inactive)”; (rat, strain Fischer 344, females, in feed, site: any site (literature study), lesion: several types, types named in the paper, dosed 103 weeks, study length 104 weeks) “negative (inactive)”; (rat, strain Fischer 344, females, in feed, site: liver, lesion: hepatocellular adenoma, dosed 103 weeks, study length 104 weeks) “negative (inactive)”; (rat, strain Fischer 344, females, in feed, site: liver, lesion: hepatocellular carcinoma, dosed 103 weeks, study length 104 weeks) “negative (inactive)”; (rat, strain Fischer 344, males, in feed, site: any site (literature study), lesion: malignant tumor, dosed 103 weeks, study length 104 weeks) “negative (inactive)”. In addition, the carcinogen call was “negative (inactive)” (rat, strain Fischer 344, males, in feed, site: any site (literature study), lesion: several types, types named in the paper, dosed 103 weeks, study length 104 weeks); “negative (inactive)” (rat, strain Fischer 344, males, in feed, site: liver, lesion: hepatocellular adenoma, dosed 103 weeks, study length 104 weeks); “negative (inactive)” (rat, strain Fischer 344, males, in feed, site: liver, lesion: hepatocellular carcinoma, dosed 103 weeks, study length 104 weeks). Further, the TD50 (mouse, strain B6C3F1, males, in feed, site: liver, lesion: hepatocellular adenoma, dosed 104 weeks, study length 105 weeks) was 2330 mg/kg/day (inactive); the TD50 (mouse, strain B6C3F1, males, in feed, site: liver, lesion: several types, types named in the paper, dosed 104 weeks, study length 105 weeks) is 2750 mg/kg/day (inactive); the TD50 (rat, strain Fischer 344, males, in feed, site: any site (literature study), lesion: benign tumor, dosed 103 weeks, study length 104 weeks) is 1170 mg/kg/day (inactive).
